Key:
[1] = tested on: recombinant NL4-3 virus (Renilla luciferase) in MT-2 cells; assay: HIV cell culture assay (antiviral activity, luciferase readout); type: cell-based; settings: Renilla, NL43
Procedure, shortened: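 Antiviral EC50 was derived via the median effect equation from luciferase signal. The signal came from MT-2 cultures infected for 4–5 days with a nef-deleted, Renilla luciferase-expressing NL4-3 reporter virus (made in 293T cells) in the presence of compound dilutions.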

[2] = Compound cytotoxicity, XTT-based colorimetric assay; type: cell-based; settings: human; uninfected MT2 cells, day 4, XTT
Procedure, shortened: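 Run under the antiviral-assay protocol but without virus. Viability was read on day 4 and CC50 values were derived from the readout.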

Compound `COCc1nc(C)cc(-c2ccc3c(=O)n(-c4ccc(Cl)c5c(NS(C)(=O)=O)nn(C)c45)c([C@H](Cc4cc(F)cc(F)c4)NC(=O)Cn4nc(C(F)F)c5c4C(F)(F)[C@@H]4C[C@H]54)nc3c2)n1` (atropisomer, axis not shown; (P)) [Example 75, N—((S)-1-((3P)-3-(4-chloro-1-methyl-3-(methylsulfonamido)-1H-indazol-7-yl)-7-(2-(methoxymethyl)-6-methylpyrimidin-4-yl)-4-oxo-3,4-dihydroquinazolin-2-yl)-2-(3,5-difluorophenyl)ethyl)-2-((3bS,4aR)-3-(difluoromethyl)-5,5-difluoro-3b,4,4a,5-tetrahydro-1H-cyclopropa[3,4]cyclopenta[1,2-c]pyrazol-1-yl)acetamide] has an EC50 [1] of 77 pM and a CC50 at 4 days [2] of over 500000 pM.

In the case of `CCc1ccnc(-c2ccc3c(=O)n(-c4ccc(Cl)c5c(NS(C)(=O)=O)nn(CC(F)(F)F)c45)c([C@H](Cc4cc(F)cc(F)c4)NC(=O)Cn4nc(C(F)F)c5c4C(F)(F)[C@@H]4C[C@H]54)nc3c2)n1` (atropisomer, axis not shown) [Example 111, N-[(1S)-1-{3-[4-chloro-3-methanesulfonamido-1-(2,2,2-trifluoroethyl)-1H-indazol-7-yl]-7-(4-ethylpyrimidin-2-yl)-4-oxo-3,4-dihydroquinazolin-2-yl}-2-(3,5-difluorophenyl)ethyl]-2-[(2S,4R)-9-(difluoromethyl)-5,5-difluoro-7,8-diazatricyclo[4.3.0.0^2,^4]nona-1(6),8-dien-7-yl]acetamide], the EC50 [1] is reported as 110 pM and the CC50 at 4 days [2] is reported as over 500000 pM.

`Cn1nc(NS(C)(=O)=O)c2c(Cl)ccc(-n3c([C@H](Cc4cc(F)cc(F)c4)NC(=O)Cn4nc(C(F)F)c5c4C(F)(F)[C@@H]4C[C@H]54)nc4cc(-c5cccc(C(F)F)c5)ccc4c3=O)c21` (atropisomer, axis not shown) [Example 120] gave an EC50 [1] of 380 pM and a CC50 at 4 days [2] of over 500000 pM.

`CS(=O)(=O)Nc1nn(CC(F)F)c2c(-n3c([C@H](Cc4cc(F)cc(F)c4)NC(=O)Cn4nc(C(F)F)c5c4C(F)(F)[C@@H]4C[C@H]54)nc4cc(-c5cccnn5)ccc4c3=O)ccc(Cl)c12` (atropisomer, axis not shown) [Example 135, N-[(1S)-1-{3-[4-chloro-1-(2,2-difluoroethyl)-3-methanesulfonamido-1H-indazol-7-yl]-4-oxo-7-(pyridazin-3-yl)-3,4-dihydroquinazolin-2-yl}-2-(3,5-difluorophenyl)ethyl]-2-[(2S,4R)-9-(difluoromethyl)-5,5-difluoro-7,8-diazatricyclo[4.3.0.0^2,^4]nona-1(6),8-dien-7-yl]acetamide] gave an EC50 [1] of 54 pM and a CC50 at 4 days [2] of over 500000 pM.

For `Cc1ccc(-n2c([C@H](Cc3cc(F)cc(F)c3)NC(=O)Cn3nc(C(F)F)c4c3C(F)(F)[C@@H]3C[C@H]43)nc3cc(-c4cccnn4)ccc3c2=O)c2c1c(NS(C)(=O)=O)nn2C` (atropisomer, axis not shown) [Example 141, 2-[(2S,4R)-9-(difluoromethyl)-5,5-difluoro-7,8-diazatricyclo[4.3.0.0^2,^4]nona-1(6),8-dien-7-yl]-N-[(1S)-2-(3,5-difluorophenyl)-1-[3-(3-methanesulfonamido-1,4-dimethyl-1H-indazol-7-yl)-4-oxo-7-(pyridazin-3-yl)-3,4-dihydroquinazolin-2-yl]ethyl]acetamide], the EC50 [1] was 130 pM and the CC50 at 4 days [2] was over 500000 pM.

`CN(c1ccc(-c2ccc3c(=O)n(-c4ccc(Cl)c5c(NS(C)(=O)=O)nn(C)c45)c([C@H](Cc4cc(F)cc(F)c4)NC(=O)Cn4nc(C(F)F)c5c4C(F)(F)[C@@H]4C[C@H]54)nc3c2)cc1)S(C)(=O)=O` [Example 29, N—((S)-1-((3P)-3-(4-chloro-1-methyl-3-(methylsulfonamido)-1H-indazol-7-yl)-7-(4-(N-methylmethylsulfonamido)phenyl)-4-oxo-3,4-dihydroquinazolin-2-yl)-2-(3,5-difluorophenyl)ethyl)-2-((3bS,4aR)-3-(difluoromethyl)-5,5-difluoro-3b,4,4a,5-tetrahydro-1H-cyclopropa[3,4]cyclopenta[1,2-c]pyrazol-1-yl)acetamide] gave an EC50 [1] of 290 pM and a CC50 at 4 days [2] of over 500000 pM.
